Data as given in patent US11135319B2, “Compounds useful as imaging agents of hypoxia” (CENTRE NATIONAL DE LA RECHERCHE SCIENTIFIQUE, priority 2017, dated 2021).

Experiments:
[1] = Determination of the partition coefficient (n-octanol/H2O, radioactivity counting); type: physicochemical; conditions: ambient temperature, average of three measurements, read-out: Log P value
Description: Determination of the partition coefficient:
n-Octanol (1 mL) and H2O (1 mL) were mixed for 20 min at ambient temperature before adding 10 μL of radioactively labeled compound. The tube was vigorously agitated by a vortex mixer for 30 min at ambient temperature. Three aliquots of 100 μL were collected from each phase and counted in a Packard Cobra Gamma counter. Log P was calculated as follows: log P=log (concentration of radioactivity in the n-octanol phase/concentration of radioactivity in the aqueous phase). The values provided are an average of the three measurements carried out.

[2] = system: rhabdomyosarcoma tumor (hypoxia); assay: In vivo PET (TEP) imaging of hypoxia in the animal rhabdomyosarcoma model; conditions: for SUVMax (average) / SUVMean (average): tumor to muscle
Description: The evaluations of the radio-tracers were carried out in the animal rhabdomyosarcoma model provided by Biomedical Magnetic Resonance Research Group (REMA)—Catholic University of Louvain (UCL)—Belgium according to Peeters et al. (Int J Radiat Oncol, 2015) in the comparative study of [^18F]HX-4, [^18F]FMISO and [^18F]FAZA. The in vivo imaging was carried out using an Inveon μTEP/μTDM camera (Siemens). The animals were handled under gaseous anesthesia using isoflurane (induction at 5%, maintenance between 1.5% and 2.5% in 70% N2O/30% O2). The body temperature of the animals was maintained above 37.5° C. while the rate of respiration was constantly monitored, in order to obtain stable anesthesia reproducible from one animal to another. A catheter was placed without surgery (Insight Autoguard 24 Ga) at the caudal vein in order to allow the administration of radio-tracers. TDM acquisition is systematically performed prior to TEP imaging and is used for corrections of attenuation and diffusion of photos as well as for obtaining anatomical data. Acquisitions and reconstructions were performed with a coincidence time of 3.4 ns, an energy window of 350 to 650 keV, the OSEM3D-MAP reconstruction algorithm (respectively 2 and 18 iterations) with the “fastMAP” option, uniform variance and a required resolution of 2.26 mm. 128×128×159 pixels per image, with a voxel size of 0.776×0.776×0.796 mm^3. The images were normalized in SUV (Standardized Uptake Value) and analyzed with the PMOD (3.6 PMODTechnologies) software, by manual delimitation of the volumes of interest (VOIs) “entire tumor” and “muscle” and simultaneously using the 2 imaging modes.
The animals were imaged for 180 consecutive minutes starting with the injection of the radiotracer [^18F]AEL-3156 (23±3 MBq) or [^18F]FMISO (18±3 MBq) coinciding with the beginning of TEP acquisition. The 180 min post-injection time is known to be optimal for this animal model, for obtaining imaging of hypoxia with TEP tracers such as [^18F]FMISO and [^18F]HX4. After TEP imaging and before waking, the animals systematically received an intraperitoneal injection of saline solution (2 mL) in order to rehydrate them.

Row | logP at 30 min [1] | Compound | SUVMax (average) ([2]; 20-30 min of acquisition) | SUVMean (average) ([2]; 20-30 min of acquisition) | SUVMax (average) ([2]; 40-60 min of acquisition) | SUVMean (average) ([2]; 40-60 min of acquisition) | SUVMax (average) ([2]; 160-180 min of acquisition) | SUVMean (average) ([2]; 160-180 min of acquisition) | tumor to muscle ratio in SUVmax ([2]; at 20-30 min of acquisition) | tumor to muscle ratio in SUVmean ([2]; at 20-30 min of acquisition) | time for which the optimal tumor to muscle ratio remains constant ([2]; post-injection) | tumor to muscle ratio, times lower than [^18F]AEL-3156 ([2]; at 20-30 min of acquisition) [times] | time after which the optimal tumor to muscle ratio is achieved ([2]; of acquisition) [min]
1 | -2.9 | O=[N+]([O-])c1nccn1Cn1cc(CC(CCC[18F])S(=O)(=O)O)nn1 (centres unmarked) [[^18F]AEL-3156] | 5.20 | 2.94 | 5.10 | 2.93 | 2.90 | 1.51 | 5 | 3 | at least 60 min |  | 
2 |  | O=[N+]([O-])c1nccn1CC(O)C[18F] (centres unmarked) [[^18F]FMISO] | 2.04 | 1.00 | 3.64 | 1.45 | 5.42 | 3.42 | 1.7 | 1 |  | 3 | 180
